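Each compound was tested at five concentrations against cells in 96-well plates for 48 hours. GI50: concentration for 50% inhibition of growth.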 The source made the active and inactive calls. Cut-off read from the data, not from the text of the source: active = GI50 up to about 1.1 µM and inactive = higher.
Columns and labels:
Test in all cases: DTP human tumour cell line panel, 48 h
SNB-75 = system: SNB-75
SF-539 = system: SF-539
NCI-H522 = system: NCI-H522
COLO 205 = system: COLO 205
HT-29 = system: HT-29
786-0 = system: 786-0
Hs-578T = system: Hs-578T
NCI-H226 = system: NCI-H226
HOP-62 = system: HOP-62
HCT-116 = system: HCT-116
SN12C = system: SN12C
NCI-H23 = system: NCI-H23
SK-MEL-28 = system: SK-MEL-28
A498 = system: A498
MDA-N = system: MDA-N
BT-549 = system: BT-549
Malme-3M = system: Malme-3M
M14 = system: M14
SW-620 = system: SW-620

Measured: GI50

COc1cc(-c2[o+]c3cc(O)cc(O)c3cc2O)cc(O)c1O
inactive: SNB-75 > 100 µM | SF-539 > 100 µM | NCI-H522 66.5 µM | COLO 205 > 100 µM | HT-29 > 100 µM | 786-0 > 100 µM | Hs-578T > 100 µM | NCI-H226 > 100 µM | HOP-62 > 100 µM | HCT-116 > 100 µM | SN12C > 100 µM | NCI-H23 > 100 µM | SK-MEL-28 > 100 µM | A498 > 100 µM | MDA-N 34.8 µM | BT-549 > 100 µM | Malme-3M > 100 µM | M14 > 100 µM | SW-620 30.6 µM

CC(=O)n1c(COS(C)(=O)=O)nc2ccccc21
inactive: SNB-75 > 100 µM | SF-539 > 100 µM | NCI-H522 > 100 µM | COLO 205 > 100 µM | HT-29 > 100 µM | 786-0 > 100 µM | Hs-578T > 100 µM | NCI-H226 > 100 µM | HOP-62 50.2 µM | HCT-116 > 100 µM | SN12C > 100 µM | NCI-H23 > 100 µM | SK-MEL-28 > 100 µM | A498 > 100 µM | MDA-N > 100 µM | BT-549 > 100 µM | Malme-3M > 100 µM | M14 > 100 µM | SW-620 > 100 µM

c1ccc(CN2CCC(CNc3ncnc4ccccc34)C2)cc1 (configuration not stated)
inactive: SNB-75 > 100 µM | SF-539 68.5 µM | NCI-H522 23 µM | COLO 205 29.5 µM | HT-29 33.1 µM | 786-0 > 100 µM | Hs-578T 58.5 µM | NCI-H226 76.9 µM | HOP-62 > 100 µM | HCT-116 40.5 µM | SN12C 98.6 µM | NCI-H23 40.3 µM | SK-MEL-28 25.9 µM | A498 41.3 µM | MDA-N 47.1 µM | BT-549 > 100 µM | Malme-3M 19.5 µM | M14 17.3 µM | SW-620 > 100 µM

c1ccc(C[N+]23CN4CN(CN(C4)C2)C3)cc1
inactive: SNB-75 45.6 µM | SF-539 28.6 µM | NCI-H522 > 100 µM | COLO 205 18.5 µM | HT-29 33.2 µM | 786-0 21.1 µM | Hs-578T > 100 µM | NCI-H226 > 100 µM | HOP-62 69.2 µM | HCT-116 27.7 µM | SN12C 53.2 µM | NCI-H23 19.1 µM | SK-MEL-28 26.7 µM | A498 > 100 µM | MDA-N 94.4 µM | BT-549 48.2 µM | Malme-3M 57.7 µM | M14 19.7 µM | SW-620 24.1 µM

CN(C)/C=N/c1cc(=O)n(C)c(=O)n1C
inactive: SNB-75 > 100 µM | SF-539 > 100 µM | NCI-H522 > 100 µM | COLO 205 > 100 µM | HT-29 > 100 µM | 786-0 > 100 µM | Hs-578T > 100 µM | NCI-H226 > 100 µM | HOP-62 > 100 µM | HCT-116 > 100 µM | SN12C > 100 µM | NCI-H23 > 100 µM | SK-MEL-28 > 100 µM | A498 > 100 µM | MDA-N > 100 µM | BT-549 > 100 µM | Malme-3M > 100 µM | M14 > 100 µM | SW-620 > 100 µM

O=C(N/N=C1\CCc2ccccc21)N/N=C1\CCc2ccccc21
inactive: SNB-75 > 100 µM | SF-539 > 100 µM | NCI-H522 > 100 µM | COLO 205 > 100 µM | HT-29 > 100 µM | 786-0 > 100 µM | Hs-578T > 100 µM | NCI-H226 > 100 µM | HOP-62 > 100 µM | HCT-116 > 100 µM | SN12C > 100 µM | NCI-H23 > 100 µM | SK-MEL-28 > 100 µM | A498 > 100 µM | MDA-N 11.2 µM | BT-549 > 100 µM | Malme-3M > 100 µM | M14 13.5 µM | SW-620 > 100 µM

CCCCC(=O)OC[n+]1cccc(-c2c(COC(=O)NC(C)C)c(COC(=O)NC(C)C)c3n2CCC3)c1
inactive: SNB-75 50 µM | SF-539 28.6 µM | NCI-H522 23 µM | COLO 205 72.8 µM | HT-29 43 µM | 786-0 23.1 µM | Hs-578T > 50.6 µM | NCI-H226 55.7 µM | HOP-62 56.1 µM | HCT-116 37.2 µM | SN12C 31.8 µM | NCI-H23 26.2 µM | SK-MEL-28 > 100 µM | A498 25.8 µM | MDA-N 99.1 µM | BT-549 28.8 µM | Malme-3M 32.7 µM | M14 40.5 µM | SW-620 38.5 µM

O=c1[nH][nH]c(=S)c(=O)[nH]1
inactive: SNB-75 > 100 µM | SF-539 > 100 µM | NCI-H522 > 100 µM | COLO 205 > 100 µM | HT-29 > 100 µM | 786-0 > 100 µM | Hs-578T > 100 µM | NCI-H226 > 100 µM | HOP-62 > 100 µM | HCT-116 > 100 µM | SN12C > 100 µM | NCI-H23 > 100 µM | SK-MEL-28 > 100 µM | A498 > 100 µM | MDA-N > 100 µM | BT-549 > 100 µM | Malme-3M > 100 µM | M14 > 100 µM | SW-620 > 100 µM

— ChEMBL document CHEMBL1201862, “PubChem BioAssay data set” (2004)
